Patent US20110097332A1, “Composition and Method of Use for HCV Immunization” (priority 2007, published 2011)
Entries after “also recorded” stand apart in the source; their conditions may differ. Read-outs that look alike come from different tables or passages of the source. Primed or numbered codes have the meaning given here. FITC′ = not defined here

Legend:
HCV E2 = test: in vitro phosphorylation assay of AP50 by recombinant E2 (cell-free, 32P ATP); type: biochemical; conditions: peptide added to the phosphorylation assay
Method: AP50 was immunopurified from untransfected primary hepatocytes and subjected to heat inactivation of any associated kinases. Recombinant wild type or mutated E2 were combined with AP50 in the presence of ^32P ATP (MP Biomedicals cat. #35020) and kinase buffer (50 mM Tris-HCL, pH 7.5, 5 mM MgCl2). The reaction was incubated at room temperature for 1 hour, and run on an SDSPAGE, transferred to a membrane and exposed to film overnight, as described previously (8; 57; 63).

E2 = test: binding of the mutant AP50 peptide to E2; design: species or system HCV
[1] = system: HCV-infected primary human hepatocytes; test: cell permeability and co-localization with E2 in HCV-infected primary human hepatocytes (immuno-staining, FITC tag); type: cell-based
Description: (§1) Hepatocytes were obtained (from Tissue Transformation Technologies [Edison, N.J.]) from anonymous organ donors without liver disease that were not suitable for liver transplantation for technical but not medical reasons. These donors are negative For Hepatitis A, B and C, CMV, HIV, HTLV ½, and RPR-STS. Hepatocytes cultures with >5% apoptosis by annexin-V assays and/or increases >3-fold in ALT were discarded.
(§2) Hepatocytes were isolated from an encapsulated liver sample by a modified two-step perfusion technique introduced by Seglen (63). Briefly, the dissected lobe was placed into a custom-made perfusion apparatus and two to five hepatic vessels were cannulated with tubing attached to a multi-channel manifold. A liver fragment (150 to 500 g) was perfused initially (recirculation technique) with calcium-free HBSS supplemented with 0.5 mM EGTA for 20 to 30 min and then with 0.05% collagenase [Sigma] dissolved in L-15 medium (with calcium) at 37° C. until the tissue was fully digested. The digested liver was removed, immediately cooled with ice-cold L-15 medium and the cell suspension was strained through serial progressively smaller stainless steel sieves, with a final filtration through 100-micron and 60-micron nylon mesh. The filtered cell suspension was aliquoted into 250-ml tubes and centrifuged three times at 40 g for 3 min at 4° C. After the last centrifugation, the cells were re-suspended, in HypoThermosol-FRS [BioLife Solutions, Inc] combined in one tube and placed on ice.
Cells were centrifuged at 700 rpm for 5 min at 4° C., the supernatant was removed and the cells were washed with Hanks Wash Solution ([…] KCl 0.4 g/l; 4.4 mM KH2PO 0.06 g/l; […] NaCl 8 g/l; 3.4 mM Na2HPO4 0.048 g/l; 20 μL CaCl2 (2M)) three times. […]
Fluorescent labels were observed using a triple-channel fluorescence microscope or a laser scanning confocal microscope. […] At least 100 cells were analyzed per experimental point (9). The nuclear morphology was analyzed by staining cells with TOPRO-3 (R&D Systems).

[2] = system: HCV genotypes 1, 3, and 4; test: HCV infection/replication in primary human hepatocytes, HCV RNA by RT-PCR; type: cell-based
Description: as §1
as §2, with “After the last centrifugation, the cells were re-suspended, in HypoThermosol-FRS [BioLife Solutions, Inc] combined in one tube and placed on ice.” left out

[3] = system: HCV-infected primary human hepatocytes; test: cell toxicity (LDH in medium) of HCV-infected primary human hepatocytes; type: cell-based
Method: Toxicity of HCV E2 mutants to human hepatocyte cultures was determined by measuring lactic dehydrogenase (LDH) (Sigma) and alanine aminotransferase (ALT) (Weiner Laboratories) in the medium. Positive (Jo2 Ab) and negative (untreated cells) control samples were determined in parallel. LDH assays of culture media were measurements of cellular leakage that indicates cell injury. ALT was enriched in hepatocytes and it's presence in serum or cell culture media was a classic indicator of hepatocyte injury. Indeed, it is the FDA's gold standard for hepatocellular toxicity.

HCV E2 Y228E mutant = HCV E2 Y228E mutant (hepatitis C virus (HCV), UniProt P26664 384-746, Y228E); test: co-immunopurification with anti-cyclin G antibodies, primary mouse hepatocytes
HCV E2 Y228F mutant = HCV E2 Y228F mutant (hepatitis C virus (HCV), UniProt P26664 384-746, Y228F); test: as above
[4] = listed as dominant negative peptide of the AP50 phospho-acceptor
[5] = primary hepatocyte infection system

Molecule	auto-phosphorylation of E2 (HCV E2)	phosphorylation of AP50 by recombinant E2 (E2 kinase activity) (HCV E2; [4])	phosphorylation of AP50 by recombinant E2 (E2 kinase activity) (HCV E2; listed as dominant negative peptide of the E2 consensus phosphorylation site)	phosphorylation of AP50 by recombinant E2 (E2 kinase activity) (HCV E2; listed as mutant AP50 peptide)	binding to E2 (E2)	cell permeability [1]	co-localization / association with HCV E2 [1]	co-localization / association with HCV E2 [1, 4]	HCV replication (HCV RNA by RT-PCR) ([2]; peptide added at the time of HCV infection, genotypes 1, 3, and 4)	HCV infection [2, 5]	toxicity at termination of the experiment ([3]; 120 hours, in the presence of the peptide)	LDH levels (hepatocyte toxicity) ([3]; peptide added to the media at 72 hours post HCV infection)	hepatocyte toxicity induced by the peptide [3, 5]	binding result (HCV E2 Y228E mutant)	binding result (HCV E2 Y228F mutant)
NH2-QGEVQRRRQRRKKRGYGGGG-FITC (H-QGEVQRRRQRRKKRGYGGGG-{FITC′}) [AP50 peptide]	unaffected	blocks the in vitro kinase activity of E2	blocked	able to block the phosphorylation of AP50 by recombinant E2 in vitro; also recorded: blocks AP50 phosphorylation by E2	high affinity	cell permeable	co-localized with HCV E2	associates with E2	inhibits HCV replication of genotypes 1, 3, and 4	inhibits HCV infection	comparable to that of uninfected cells	LDH levels began to decrease	without inducing hepatocyte toxicity		
cyclin G, endogenous, in primary mouse hepatocytes (other) MIEVLTTDSQKLLHQLNTLLEQESRCQPKVCGLKLIESAHDNGLRMTARLRDFEVKDLLSLTQFFGFDTETFSLAVNLLDRFLSKMKVQAKHLGCVGLSCFYLAVKATEEERNVPLATDLIRISQYRFTVSDLMRMEKIVLEKVCWKVKATTAFQFLQLYYSLVHDTLPFERRNDLNFERLEAQLKACHCRIIFSKAKPSVLALSILALEIQALKYVELTEGVECIQKHSKISGRDLTFWQELVSKCLTEYSSNKCSKPNGQKLKWIVSGRTARQLKHSYYRITHLPTIPETIC														no binding	no binding
